From US12643879B2, “Functionalized heterocyclic compounds as modulators of stimulator of interferon genes (STING)” (RYVU THERAPEUTICS S.A., priority 2019, dated 2026)

Tests used:
[1] = tested on: NF-κB pathway in THP-1 dual cells; assay: THP-1 Dual reporter assay, NF-κB pathway (SEAP); assay type: cell-based; settings: Homo sapiens, THP1-Dual; 18 h stimulation, absorbance at 630 or 655 nm; read-out: THP1 Dual EC50 (μM) NFkB
Summary of the method: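 After 18 h stimulation with STING agonist, culture medium was sampled. IRF activity was read as luminescence of ISG54/ISRE-driven luciferase right after adding reagent; NF-κB activity as absorbance at 630 or 655 nm of SEAP (IFN-β minimal promoter with NF-κB elements) after 1 or 2 h at 37° C.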

human STING = human STING (Homo sapiens, UniProt Q86WV6); assay: Fluorescence Thermal Shift assay (binding to STING); settings: STING 0.1 mg/mL, SyproOrange, 25 to 99° C.
Summary of the method: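 Human STING (0.1 mg/mL final) preincubated 20 min with compounds in 50 mM Hepes, 150 mM NaCl, pH 7.5, then SyproOrange added. Thermal unfolding 25–99 °C at 0.033 °C/s continuous ramp monitored by fluorescence.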

[2] = tested on: interferon regulatory factor (IRF) pathway in THP-1 dual cells; assay: THP-1 Dual reporter assay, IRF pathway (luciferase); assay type: cell-based; settings: Homo sapiens, THP1-Dual; 18 h stimulation, luminescence; read-out: THP1 Dual EC50 (μM) IRF
Summary of the method: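 IRF output: ISRE-ISG54 luciferase in collected medium, luminescence measured immediately on reagent addition. NF-κB output: SEAP under NF-κB-element IFN-β promoter, detection medium 1 or 2 h at 37° C, absorbance 630 or 655 nm. Cells were stimulated with STING agonist for 18 h beforehand.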

[3] = tested on: CT26 murine colon carcinoma allografts; assay: In vivo anti-tumor efficacy in CT26 allografts; parameters: species or system female Balb/C mice; settings: intravenously, once every fifth day on three occasions
Description: The efficacy of Example 4, Example 31 and Example 57 was evaluated in established CT26 murine colon carcinoma allografts in female Balb/C mice. Compounds were formulated in 5% ethanol with 10% Captisol in PBS and administered intravenously, once every fifth day on three occasions. The solution was prepared fresh prior to each administration. […] By the end of the study there was one complete response among animals treated at 10 mg/kg of Example 4. […] By the end of the study, on day 43, there was one complete response recorded in group treated at 20 mg/kg of Example 57.

Chain of human STING (Q86WV6 whole entry H232R): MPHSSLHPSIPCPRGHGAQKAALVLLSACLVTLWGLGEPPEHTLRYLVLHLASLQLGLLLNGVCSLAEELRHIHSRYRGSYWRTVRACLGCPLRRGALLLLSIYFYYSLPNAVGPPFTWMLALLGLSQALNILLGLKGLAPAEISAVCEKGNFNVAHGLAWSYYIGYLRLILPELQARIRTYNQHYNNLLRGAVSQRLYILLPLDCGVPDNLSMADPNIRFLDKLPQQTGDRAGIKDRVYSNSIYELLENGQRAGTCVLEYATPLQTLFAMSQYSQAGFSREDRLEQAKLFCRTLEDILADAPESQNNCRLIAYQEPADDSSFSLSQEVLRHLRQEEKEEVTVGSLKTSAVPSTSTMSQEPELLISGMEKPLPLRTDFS

Compound	EC50 [1] [µM]	hSTING FTS binding assay (ΔT C. °) (human STING)	EC50 [2] [µM]	anti-tumor efficacy (tumor growth vs control group) ([3]; 7 mg/kg)	anti-tumor efficacy (tumor growth vs control group) ([3]; 15 mg/kg)	anti-tumor efficacy (tumor growth vs control group) ([3]; 30 mg/kg)	complete responses by the end of the study ([3]; 30 mg/kg, day 43)	response of CT26 tumors to treatment [3]	anti-tumor efficacy (tumor growth vs control group) ([3]; 5 mg/kg)	anti-tumor efficacy (tumor growth vs control group) ([3]; 10 mg/kg)	anti-tumor efficacy (tumor growth vs control group) ([3]; 20 mg/kg)	complete responses by the end of the study ([3]; 20 mg/kg, day 43)	complete responses by the end of the study ([3]; 10 mg/kg)
Cc1ccc(N2CCC[C@H](N(Cc3ccnc(C)c3)Cc3cn(C4CC4)c4cc(N5CCC[C@H](O)C5)c(F)cc4c3=O)C2)cn1.Cl [Example 31, 1-cyclopropyl-6-fluoro-7-[(3S)-3-hydroxypiperidin-1-yl]-3-({[(3S)-1-(6-methylpyridin-3-yl)piperidin-3-yl][(2-methylpyridin-4-yl)methyl]amino}methyl)-1,4-dihydroquinolin-4-one hydrochloride]	< 1	+++ (+++=ΔTm ≥20° C.)	< 1	slight tumor growth delay	prominently efficacious	prominently efficacious	two	responded prominently					
Cc1ccc(N2CCC[C@H](N(Cc3ccnc(C)c3)Cc3cn(C4CC4)c4cc(N5CC[C@H](N)C(F)(F)C5)c(F)cc4c3=O)C2)cn1.Cl (single isomer, unassigned) [Example 57]		+++ (+++=ΔTm ≥20° C.)						responded prominently	minimal tumor growth delay	moderately efficacious	full efficacious	one	
COc1cc(CN(Cc2cn(C3CC3)c3cc(F)c(F)cc3c2=O)[C@H]2CCCN(c3ccc(N)nc3)C2)ccn1.Cl [Example 4, 3-({[(3S)-1-(6-Aminopyridin-3-yl)piperidin-3-yl][(2-methoxypyridin-4-yl)methyl]amino}methyl)-1-cyclopropyl-6,7-difluoro-1,4-dihydroquinolin-4-one hydrochloride]	< 1	+++ (+++=ΔTm ≥20° C.)	< 1	efficacious				responded prominently		efficacious			one
Cc1ccc(N2C[C@@H](F)C[C@H](N(Cc3ccnc(C)c3)Cc3cn(C4CC4)c4cc(OCCO)c(F)cc4c3=O)C2)cn1 [Example 75, 1-cyclopropyl-6-fluoro-3-({[(3S,5S)-5-fluoro-1-(6-methylpyridin-3-yl)piperidin-3-yl][(2-methylpyridin-4-yl)methyl]amino}methyl)-7-(2-hydroxyethoxy)-1,4-dihydroquinolin-4-one]	< 1	+++ (+++=ΔTm ≥20° C.)	< 1										
Cc1cc(CN(Cc2cn(C(C)C)c3cc(N4CC[C@@H](O)C4)ccc3c2=O)[C@H]2CCCN(c3ccnnc3)C2)ccn1 [Example 49, 7-[(3R)-3-hydroxypyrrolidin-1-yl]-3-({[(2-methylpyridin-4-yl)methyl][(3S)-1-(pyridazin-4-yl)piperidin-3-yl]amino}methyl)-1-(propan-2-yl)-1,4-dihydroquinolin-4-one]	> 10	+ (+=ΔTm ≤10° C.)	> 10										
Cc1ccc(N2CCC[C@H](N(Cc3ccnc(C)c3)Cc3cn(C)c4cc(N5CCC(N)CC5)ccc4c3=O)C2)cn1.Cl [Example 6, 7-(4-Aminopiperidin-1-yl)-1-methyl-3-({[(3S)-1-(6-methylpyridin-3-yl)piperidin-3-yl][(2-methylpyridin-4-yl)methyl]amino}methyl)-1,4-dihydroquinolin-4-one hydrochloride]	1 to 10	++ (++=10<ΔTm <20° C.)	1 to 10										
Cc1ccc(N2CCC[C@H](N(Cc3ccnc(C)c3)Cc3cn(C4CC4)c4cc(N5CCCC(C(=O)O)C5)c(F)cc4c3=O)C2)cn1 (stereo partly drawn) [Example 66, 1-[1-cyclopropyl-6-fluoro-3-({[(3S)-1-(6-methylpyridin-3-yl)piperidin-3-yl][(2-methylpyridin-4-yl)methyl]amino}methyl)-4-oxo-1,4-dihydroquinolin-7-yl]piperidine-3-carboxylic acid]	1 to 10	+++ (+++=ΔTm ≥20° C.)	1 to 10										
